The source of these data is US7452997B2 (priority 2004, dated 2008).

Each structure is given as a SMILES string. Read-outs that look alike come from different tables or passages of the source.

For orientation: IC50 means the midpoint of a concentration-inhibition curve. Read a low IC50 as greater potency. What is called EC50 is the concentration that produces a half-maximal response.

The target of assay [1] is T1, human CB1 receptor (Homo sapiens, UniProt P21554).
T1 construct: expressed in transfected cells; host or cells: SK-N-MC cells, stably transfected with pcDNA3 CB-1 (human); semi-purified membrane pellet
The assay is described as follows: biochemical. It counts as binding. The essentials: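 Radioligand binding was run at 30° C for 90 minutes, pH 7.5 Tris buffer containing 0.5 mg/mL fatty acid free BSA, on semi-purified membranes of stably transfected SK-N-MC cells. Filter-bound radioactivity was scintillation counted, with IC50 obtained by linear regression across compound concentrations.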

Assay [2] addresses T2, human CB2 receptor (Homo sapiens, UniProt P34972). The experiment in a line: Binding assay, cannabinoid CB2 receptor ([3H]-CP-55,940 displacement). The conditions noted are these: Cannabinoid CB2 Receptor Binding IC50, human CB2 receptor, SK-N-MC cell membranes, radioligand CP-55,940 0.2 nM. The essentials: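 Displacement of [3H]-CP-55,940 (0.2 nM) was measured over 90 min at 30 °C (pH 7.5 Tris/MgCl2/EDTA buffer with BSA), using semi-purified membranes of human CB2-transfected SK-N-MC cells. Bound counts collected on GF/C filters, 10 uM WIN 55,212 as nonspecific control; IC50 from varied concentrations.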

For assay [3], the target named is T1, human CB1 receptor. The assay is described as follows: Functional cell-based assay, CB1 receptor mediated change in CRE β-gal expression (agonist / inverse agonist). The text has this:
(§1) Functional Cell-Based Assay for CB1 or CB2 Agonist and Inverse Agonist Effects on Intra-Cellular Adenylate Cyclase Activity
(§2) The CB1 and CB2 receptors are G-protein coupled receptors (GPCR) which influence cell function via the Gi-protein. These receptors modulate the activity of intracellular adenylate cyclase which in turn produces the intracellular signal messenger cyclic-AMP (cAMP).
(§3) At baseline, or during non-ligand bound conditions, these receptors are constitutively active and tonically suppress adenylate cyclase activity. The binding of an agonists causes further receptor activation and produces additional suppression of adenylate cyclase activity. The binding of an inverse agonist inhibits the constitutive activity of the receptors and results in an increase in adenylate cyclase activity.
(§4) By monitoring intracellular adenylate cyclase activity, the ability of compounds to act as agonists or inverse agonists can be determined.
(§5) Test compounds were evaluated in SK-N-MC cells which, using standard transfection procedures, were stably transfected with human cDNA for pcDNA3-CRE β-gal and pcDNA3 CB1 receptor (human) or pcDNA3 CB2 receptor (human). By expressing CRE β-gal, the cells produced β-galactosidase in response to CRE promoter activation by cAMP. Cells expressing CRE β-gal and either the human CB1 or CB2 receptor will produce less β-galactosidase when treated with a CB1/CB2 agonist and will produce more β-galactosidase when treated with a CB1/CB2 inverse agonist.
(§6) The cells were grown in 96-well plates under standard cell culture conditions at 37° C. in a 5% CO2 atmosphere. After 3 days, the media was removed and a test compound in media (wherein the media was supplemented with 2 mM L-glutamine, […] sodium pyruvate, 0.1% low fatty acid FBS (fetal bovine serum) and antibiotics) was added to the cell. The plates were incubated for 30 minutes at 37° C. and the plate cells were then treated with forskolin over a 4-6 hour period, then washed and lysed. The β-galactosidase activity was quantitated using commercially available kit reagents (Promega Corp. Madison, Wis.) and a VMAX Plate Reader (Molecular Devices, Inc).
(§7) The change in β-galactosidase activity was determined by setting a vehicle treated cell's activity value at 100% and expressing the β-galactosidase activity measured in a corresponding compound treated cell as a percent of the vehicle treated cell activity.
(§8) The EC50 values for compounds tested were calculated by linear regression and were obtained from studies in which varying compound concentrations were used.

Assay [4] has as its target T2, human CB2 receptor. The assay is described as follows: Functional cell-based assay, CB2 receptor mediated change in CRE β-gal expression (agonist / inverse agonist). The settings on record: SK-N-MC cells, forskolin.
Text: as §1, §2, §3, §4, §5, §6
For cells expressing CRE β-gal and the CB2 receptor, CB2 agonists reduced β-galactosidase activity in a dose-dependent manner and CB2 inverse agonists increased β-galactosidase activity in a dose-dependent manner.
as §7, §8

Where [5] appears, read: inverse agonist, read-out: CB2 Receptor Functional Inverse Agonist EC50.

T1 sequence (P21554 whole entry): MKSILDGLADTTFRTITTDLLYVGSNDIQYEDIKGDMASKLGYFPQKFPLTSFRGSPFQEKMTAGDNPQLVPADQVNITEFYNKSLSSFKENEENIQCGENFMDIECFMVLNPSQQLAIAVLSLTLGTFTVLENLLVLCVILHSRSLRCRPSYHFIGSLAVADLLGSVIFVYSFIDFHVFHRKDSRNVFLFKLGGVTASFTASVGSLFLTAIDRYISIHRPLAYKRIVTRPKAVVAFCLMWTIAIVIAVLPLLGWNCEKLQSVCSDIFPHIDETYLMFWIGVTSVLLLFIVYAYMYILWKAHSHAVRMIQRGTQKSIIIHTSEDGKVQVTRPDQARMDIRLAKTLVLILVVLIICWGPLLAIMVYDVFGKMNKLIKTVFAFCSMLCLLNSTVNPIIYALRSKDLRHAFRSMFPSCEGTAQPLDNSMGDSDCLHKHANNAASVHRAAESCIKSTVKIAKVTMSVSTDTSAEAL
T2 sequence (P34972 whole entry): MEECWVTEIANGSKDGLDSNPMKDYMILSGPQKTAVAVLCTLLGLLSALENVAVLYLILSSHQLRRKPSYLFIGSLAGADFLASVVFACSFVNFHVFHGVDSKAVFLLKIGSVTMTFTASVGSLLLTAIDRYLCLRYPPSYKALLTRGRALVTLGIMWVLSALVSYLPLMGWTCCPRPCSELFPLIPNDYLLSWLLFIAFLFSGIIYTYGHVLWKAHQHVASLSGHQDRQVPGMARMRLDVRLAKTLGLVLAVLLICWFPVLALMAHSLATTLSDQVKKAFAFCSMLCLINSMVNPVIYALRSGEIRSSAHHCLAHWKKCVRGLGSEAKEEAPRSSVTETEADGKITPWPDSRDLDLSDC

As to `CCOC(=O)C1C2CCC(C2)C1NC(=O)c1nn(C2CCCCC2)c2c1CCCC2` (centres unmarked) [compound 28], the IC50 in assay [1] came to 850 nM; in assay [2], 7.5 nM. Moreover, the EC50 is 2030 nM in assay [3] and 330 nM in assay [4] (agonist, read-out: CB2 Receptor Functional Agonist EC50).

`CCOC(=O)C1CCc2c(c(C(=O)NC3C4(C)CCC(C4)C3(C)C)nn2C2CCCCC2)C1` (centres unmarked) [compound 67]: the IC50 in assay [1] is 300 nM; in assay [2], 15.5 nM. Also, the EC50 in assay [3] stood at 524 nM; in assay [4] (setting [5]) it was 23 nM.

For the compound `CCOC(=O)C1CCc2c(C(=O)NC3C4(C)CCC(C4)C3(C)C)nn(C3CCCCC3)c2C1` (centres unmarked) [compound 70], the IC50 in assay [1] turned out to be 125 nM; in assay [2], 16 nM. Besides, the figures for the EC50 in assay [3] and in assay [4] (setting [5]) were 1000 nM and 45.9 nM, respectively.

Turning to `CCOC(=O)[C@@H]1CCc2c(c(C(=O)NC3C4(C)CCC(C4)C3(C)C)nn2-c2ccccc2)C1` (some centres unmarked) [compound 220], the IC50 in assay [2] stood at 230 nM. The EC50 was determined as 399 nM in assay [3] and 220 nM in assay [4] (setting [5]).

For the compound `CCOC(=O)C1CCc2c(c(C(=O)NC3C4CC5CC(C4)CC3C5)nn2C2CCCCC2)C1` (centres unmarked) [compound 222], the values for the IC50 in assay [1] and in assay [2] were 280 nM and 4.9 nM, respectively. Further, the figures for the EC50 in assay [3] and in assay [4] (setting [5]) were 194 nM and 33 nM, respectively.

Turning to `CCOC(=O)C1CCc2c(c(C(=O)NC3C4CC5CC(C4)CC3C5)nn2Cc2ccccc2)C1` (centres unmarked) [compound 226], the values for the IC50 in assay [1] and in assay [2] were 7.9 nM and 5.5 nM, respectively. The EC50 in assay [3] is 520 nM; in assay [4] (setting [5]) it was 65 nM.

`O=C(NN1CCOCC1)c1nn(-c2ccc(Cl)cc2Cl)c2c1CCC/C2=C\c1ccc(Cl)cc1` [compound 291]: the IC50 in assay [1] was found to be 180 nM; in assay [2], 1700 nM. Moreover, a half-maximal response in assay [3] (EC50) required 10 nM.

Consider `CC1(C)[C@@H]2CC[C@@](C)(C2)[C@H]1NC(=O)c1nn(-c2ccc(Cl)cc2Cl)c2c1CCC/C2=C\c1ccc(Cl)cc1` [compound 292], for which the IC50 in assay [1] turned out to be 33 nM; in assay [2], 60 nM. In assay [3], this compound had an EC50 of 9 nM.

`C[C@@H](NC(=O)c1nn(-c2ccc(Cl)cc2Cl)c2c1CCC/C2=C\c1ccc(Cl)cc1)C1CCCCC1` [compound 293]: the IC50 in assay [1] is 6 nM; in assay [2] it was 600 nM. The compound further displayed an EC50 in assay [3] of 25 nM.

Consider `C[C@H](NC(=O)c1nn(-c2ccc(Cl)cc2Cl)c2c1CCC/C2=C\c1ccc(Cl)cc1)c1ccccc1` [compound 294], for which the IC50 in assay [1] was 110 nM; in assay [2], 700 nM. In addition, a half-maximal effect in assay [3] (EC50) was put at 140 nM.

Consider `C[C@H](NC(=O)/C=C/c1nn(Cc2ccccc2)c2c1CCCC2)c1ccccc1` [compound 305], for which the values for the IC50 in assay [1] and in assay [2] were 9800 nM and 7200 nM, respectively. Besides, the EC50 in assay [3] was 630 nM.

In the case of `C[C@H](NC(=O)c1nn(-c2ccc(Cl)cc2Cl)c2c1CCCC2=Cc1ccc(Cl)cc1)C1CCCCC1` [compound 321], the IC50 in assay [1] was 230 nM; in assay [2], 600 nM. In assay [3], this compound registered an EC50 of 133 nM.

As to `CC12CCC(C1)C(C)(C)C2NC(=O)Nc1nn(Cc2ccccc2)c2c1CCCC2` (centres unmarked) [compound 338], the figures for the IC50 in assay [1] and in assay [2] were 1350 nM and 27 nM, respectively. The EC50 in assay [3] amounted to 6 nM.
